# Measurements from patent US12384787B2, “Fused heterocyclic compounds and their use as pest control agents” (PI INDUSTRIES LTD., priority 2019, dated 2025).
# What was measured:
# [1] = system: Helicoverpa armigera; assay: Helicoverpa armigera diet incorporation method; assay type: in vivo; settings: third instar larvae, 96 h after release, dead and moribund combined, compared to untreated control, read-out: Percent mortality
# Procedure: Diet incorporation method was used, in which the required quantity of test compounds were weighed and dissolved in a surfactant solution, kept on vortex for 90 min for proper mixing, then was diluted with water to the desired test concentrations. The solutions were incorporated into semi-synthetic diet when the temperature reached approximately 50° C. in the bioassay containers. The diet and solution was stirred thoroughly for properly mixing and then left to cool for 30 min. The solidified diet was cut into equal pieces, and then each piece was transferred into one cell of the bio-assay trays. A single third starved instar larva was released into each of these cells of the bioassay trays and each tray was covered with a lid. The bio-assay trays were kept under laboratory conditions at a temperature of 25° C. and relative humidity of 70%. Observations on dead, moribund and alive larvae were recorded at 96 h after the release of the larvae. Percent mortality was calculated by combining dead and moribund larvae and comparing the result to the one of the untreated control.
# [2] = system: Plutella xylostella; assay: Plutella xylostella leaf dip method (cabbage leaves); assay type: in vivo; settings: foliar, second instar larvae, 72 h after release, dead and moribund combined, compared to untreated control, read-out: Percent mortality
# Procedure: The leaf dip method was used for testing, wherein the required quantity of the compounds were weighed and dissolved in a surfactant solution, kept on a Vortex at 2000 rpm with zirconia beads for 90 min for proper mixing and then diluted with 0.01% Triton-X solution to the desired test concentration. Cabbage leaves were dipped in the solution for 10 seconds, shade dried for 20 min and then transferred to bioassay trays. A single second instar larva was released into each bioassay tray cell and the tray was covered with a lid. The bio-assay trays were kept under laboratory conditions at a temperature of 25° C. and relative humidity of 70%. Observations on dead, moribund and living larvae were recorded at 72 h after the release. Percent mortality was calculated by combining dead and moribund larvae and comparing the result to the one of the untreated control.
structure (smiles),measurement,setting,value
"CCS(=O)(=O)c1nn2c(-c3cccc(C(F)(F)F)c3)ccnc2c1-c1nc2cc(C(F)(F)F)ncc2n1C [Compound 136, 2-(2-(Ethylsulfonyl)-7-(3-(trifluoromethyl)phenyl)pyrazolo[1,5-a]pyrimidin-3-yl)-3-methyl-6-(trifluoromethyl)-3H-imidazo[4,5-c]pyridine]",mortality at 300 ppm,[1],> 70%
same,mortality at 300 ppm,[2],> 70%
"CCSc1nn2c(-c3ccc(Cl)cc3Cl)ccnc2c1-c1nc2cc(C(F)(F)F)cnc2n1C [Compound 120, 2-(7-(2,4-Dichlorophenyl)-2-(ethylthio)pyrazolo[1,5-a]pyrimidin-3-yl)-3-methyl-6-(trifluoromethyl)-3H-imidazo[4,5-b]pyridine]",mortality at 300 ppm,[1],> 70%
"CCS(=O)(=O)c1nn2cc(-c3ccc(OC(F)(F)C(F)F)cc3)cnc2c1-c1nc2cc(C(F)(F)F)ncc2n1C [Compound 109, 2-(2-(Ethylsulfonyl)-6-(4-(1,1,2,2-tetrafluoroethoxy)phenyl)pyrazolo[1,5-a]pyrimidin-3-yl)-3-methyl-6-(trifluoromethyl)-3H-imidazo[4,5-c]pyridine]",mortality at 300 ppm,[1],> 70%
same,mortality at 300 ppm,[2],> 70%
"CCSc1nn2c(-c3cc(F)cc(Cl)c3)ccnc2c1-c1nc2cc(C(F)(F)F)cnc2n1C [Compound 102, 2-(7-(3-Chloro-5-fluorophenyl)-2-(ethylthio)pyrazolo[1,5-a]pyrimidin-3-yl)-3-methyl-6-(trifluoromethyl)-3H-imidazo[4,5-b]pyridine]",mortality at 300 ppm,[1],> 70%
"CCSc1nn2c(-c3cccc(Cl)c3)ccnc2c1-c1nc2cc(C(F)(F)F)cnc2n1C [Compound 97, 2-(7-(3-Chlorophenyl)-2-(ethylthio)pyrazolo[1,5-a]pyrimidin-3-yl)-3-methyl-6-(trifluoromethyl)-3H-imidazo[4,5-b]pyridine]",mortality at 300 ppm,[1],> 70%
"CCS(=O)(=O)c1nn2c(-c3cccc(Cl)c3)ccnc2c1-c1nc2cc(C(F)(F)F)cnc2n1C [Compound 99, 2-(7-(3-Chlorophenyl)-2-(ethylsulfonyl)pyrazolo[1,5-a]pyrimidin-3-yl)-3-methyl-6-(trifluoromethyl)-3H-imidazo[4,5-b]pyridine]",mortality at 300 ppm,[1],> 70%
same,mortality at 300 ppm,[2],> 70%
"CCSc1nn2c(-c3ccc(OC(F)(F)F)cc3)ccnc2c1-c1nc2cc(C(F)(F)F)ncc2n1C [Compound 28, 2-(2-(Ethylthio)-7-(4-(trifluoromethoxy)phenyl)pyrazolo[1,5-a]pyrimidin-3-yl)-3-methyl-6-(trifluoromethyl)-3H-imidazo[4,5-c]pyridine]",mortality at 300 ppm,[1],> 70%
same,mortality at 300 ppm,[2],> 70%
"CCS(=O)(=O)c1nn2c(-c3ccc(OC(F)(F)C(F)F)cc3)ccnc2c1-c1nc2cc(C(F)(F)F)ncc2n1C [Compound 91, 2-(2-(Ethylsulfonyl)-7-(4-(1,1,2,2-tetrafluoroethoxy)phenyl)pyrazolo[1,5-a]pyrimidin-3-yl)-3-methyl-6-(trifluoromethyl)-3H-imidazo[4,5-c]pyridine]",mortality at 300 ppm,[1],> 70%
same,mortality at 300 ppm,[2],> 70%
"CCS(=O)(=O)c1nn2ccc(-c3ccccc3)nc2c1-c1nc2cc(C(F)(F)F)ncc2n1C [Compound 46, 2-(2-(Ethylsulfonyl)-5-phenylpyrazolo[1,5-a]pyrimidin-3-yl)-3-methyl-6-(trifluoromethyl)-3H-imidazo[4,5-d]pyridine]",mortality at 300 ppm,[2],> 70%
"CCSc1nn2c(-c3ccc(OC(F)(F)F)cc3)ccnc2c1-c1nc2cc(C(F)(F)F)cnc2n1C [Compound 27, 2-(2-(Ethylthio)-7-(4-(trifluoromethoxy)phenyl)pyrazolo[1,5-a]pyrimidin-3-yl)-3-methyl-6-(trifluoromethyl)-3H-imidazo[4,5-b]pyridine]",mortality at 300 ppm,[2],> 70%
"CCS(=O)(=O)c1nn2c(-c3cccc(F)c3)ccnc2c1-c1nc2cc(C(F)(F)F)cnc2n1C [Compound 130, 2-(2-(Ethylsulfonyl)-7-(3-fluorophenyl)pyrazolo[1,5-a]pyrimidin-3-yl)-3-methyl-6-(trifluoromethyl)-3H-imidazo[4,5-b]pyridine]",mortality at 300 ppm,[2],> 70%
